Data from US12599672B2, “KRAS proteolysis targeting chimeras” (PAQ Therapeutics Inc., priority 2023, dated 2026).

Assays:
Format in all cases: cell-based
KRAS G12D = target: T1, KRAS G12D (Homo sapiens, UniProt P01116, G12D); assay: KRAS G12D HiBit assay; conditions: AsPc-1-KRAS (G12D)-HiBit-KI cell, compound treatment for 24 hours, absolute DC50
T1 construct: AsPc-1-KRAS (G12D)-HiBit-KI cell (Pharmaron); host or cells: AsPc-1-KRAS (G12D)-HiBit-KI cells (HiBiT knock-in at the endogenous KRAS locus)
In short: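 HiBiT luminescence, detected by adding lytic buffer, substrate and LgBiT protein, served as the KRAS G12D read-out. Compounds, serially diluted 3-fold over 10 points from 0.3 mM DMSO stock, were on cells for 24 h; percent inhibition normalized to cells given 0.1% DMSO only.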

KRAS G12V = target: T2, KRAS G12V (Homo sapiens, UniProt P01116, G12V); assay: KRAS G12V HiBit assay; conditions: SW620-KRAS (G12V)-HiBit-KI cells, compound treatment for 24 hours, class symbols
T2 construct: SW620-KRAS (G12V)-HiBit-KI cell (Pharmaron); host or cells: SW620-KRAS (G12V)-HiBit-KI cells (HiBiT knock-in at the endogenous KRAS locus)
In short: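 Luminescence from lytic Nano-Glo HiBiT detection with LgBiT read KRAS G12V levels after 24 h compound exposure. Dilutions were 10-point, 3-fold, from a 0.3 mM DMSO stock. Degradation activity was normalised to cells given 0.1% DMSO alone.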

KRAS = target: T3, KRAS (Homo sapiens, UniProt P01116); assay: KRASamp MSD assay; conditions: KE39 (KRAS amplified) cells, treated with test compounds for 24 hr, MSD readout of KRAS degradation
T3 construct: endogenous in cells; host or cells: KE39 (KRAS amplified) cells
In short: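 Degradation DC50 derived by curve fitting, with KRAS levels quantified by MSD electrochemiluminescence (capture/detection antibodies, recombinant WT KRAS standard). Lysates prepared from KE39 cells (KRAS amplified) exposed to test compounds for 24 hr.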

[1] = numeric bounds given in place of class symbols

T3 sequence (P01116 1-188 isoform P01116-2): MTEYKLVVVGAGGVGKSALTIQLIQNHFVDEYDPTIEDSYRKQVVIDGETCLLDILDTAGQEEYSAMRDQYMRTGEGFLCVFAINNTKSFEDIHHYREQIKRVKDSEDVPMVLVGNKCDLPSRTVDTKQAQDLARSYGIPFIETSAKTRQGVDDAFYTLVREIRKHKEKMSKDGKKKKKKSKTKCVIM
T1 sequence (P01116 1-188 isoform P01116-2 G12D): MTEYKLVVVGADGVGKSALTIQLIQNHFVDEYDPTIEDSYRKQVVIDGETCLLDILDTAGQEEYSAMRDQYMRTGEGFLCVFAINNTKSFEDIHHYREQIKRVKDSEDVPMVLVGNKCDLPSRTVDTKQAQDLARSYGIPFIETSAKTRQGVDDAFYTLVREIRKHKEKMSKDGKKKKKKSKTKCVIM
T2 sequence (P01116 1-188 isoform P01116-2 G12V): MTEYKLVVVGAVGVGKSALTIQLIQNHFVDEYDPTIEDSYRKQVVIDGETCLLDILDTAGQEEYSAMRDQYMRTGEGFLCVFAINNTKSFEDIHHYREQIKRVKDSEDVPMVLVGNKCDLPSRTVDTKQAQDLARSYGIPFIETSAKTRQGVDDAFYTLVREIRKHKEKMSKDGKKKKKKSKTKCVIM

DC50 (KRAS G12D; [1]) [nM] | DC50 (KRAS G12V) [nM] | DC50 (KRAS) [nM] | DC50 (KRAS G12D; class symbols) [nM] | Structure (SMILES)
> 100 | < 10 | < 1 |  | CCc1c(F)ccc2cc(O)cc(-c3ncc4c(N5CCC[C@@](C)(O)C5)nc(OC[C@]56CCCN5[C@H](COC(=O)N5CCC(CCCOc7ccc8c(c7)n(C)c(=O)n8C7CCC(=O)NC7=O)CC5)CC6)nc4c3F)c12 (stereo partly drawn) [Compound 302, ((3S,7aR)-7a-(((7-(8-ethyl-7-fluoro-3-hydroxynaphthalen-1-yl)-8-fluoro-4-((R)-3-hydroxy-3-methylpiperidin-1-yl)pyrido[4,3-d]pyrimidin-2-yl)oxy)methyl)hexahydro-1H-pyrrolizin-3-yl)methyl 4-(3-((1-(2,6-dioxopiperidin-3-yl)-3-methyl-2-oxo-2,3-dihydro-1H-benzo[d]imidazol-5-yl)oxy)propyl)piperidine-1-carboxylate]
 | < 10 | 1 to 10 | < 100 | CCc1c(F)ccc2cc(O)cc(-c3ncc4c(N5CCC[C@@](C)(O)C5)nc(OC[C@]56CCCN5[C@H](COC(=O)N5CCC(CCCCOc7ccc8c(c7)n(C)c(=O)n8C7CCC(=O)NC7=O)CC5)CC6)nc4c3F)c12 (stereo partly drawn) [Compound 303, ((3S,7aR)-7a-(((7-(8-ethyl-7-fluoro-3-hydroxynaphthalen-1-yl)-8-fluoro-4-((R)-3-hydroxy-3-methylpiperidin-1-yl)pyrido[4,3-d]pyrimidin-2-yl)oxy)methyl)hexahydro-1H-pyrrolizin-3-yl)methyl 4-(4-((1-(2,6-dioxopiperidin-3-yl)-3-methyl-2-oxo-2,3-dihydro-1H-benzo[d]imidazol-5-yl)oxy)butyl)piperidine-1-carboxylate]
 | > 100 | 1 to 10 | < 100 | CCc1c(F)ccc2cc(O)cc(-c3ncc4c(N5CCC[C@@](C)(O)C5)nc(OC[C@]56CCCN5[C@H](COC(=O)N5CCC(c7ccc8c(c7)n(C)c(=O)n8C7CCC(=O)NC7=O)CC5)CC6)nc4c3F)c12 (stereo partly drawn) [Compound 307, ((3S,7aR)-7a-(((7-(8-ethyl-7-fluoro-3-hydroxynaphthalen-1-yl)-8-fluoro-4-((R)-3-hydroxy-3-methylpiperidin-1-yl)pyrido[4,3-d]pyrimidin-2-yl)oxy)methyl)hexahydro-1H-pyrrolizin-3-yl)methyl 4-(1-(2,6-dioxopiperidin-3-yl)-3-methyl-2-oxo-2,3-dihydro-1H-benzo[d]imidazol-5-yl)piperidine-1-carboxylate]
> 100 | 10 to 100 | < 1 |  | CCc1c(F)ccc2cc(O)cc(-c3ncc4c(N5CCC[C@@](C)(O)C5)nc(OC[C@]56CCCN5[C@H](COC(=O)NC5CCN(c7ccc8c(c7)n(C)c(=O)n8C7CCC(=O)NC7=O)CC5)CC6)nc4c3F)c12 (stereo partly drawn) [Compound 308, ((3S,7aR)-7a-(((7-(8-ethyl-7-fluoro-3-hydroxynaphthalen-1-yl)-8-fluoro-4-((R)-3-hydroxy-3-methylpiperidin-1-yl)pyrido[4,3-d]pyrimidin-2-yl)oxy)methyl)hexahydro-1H-pyrrolizin-3-yl)methyl (1-(1-(2,6-dioxopiperidin-3-yl)-3-methyl-2-oxo-2,3-dihydro-1H-benzo[d]imidazol-5-yl)piperidin-4-yl)carbamate]
> 100 | 10 to 100 | 1 to 10 |  | CCc1c(F)ccc2cc(O)cc(-c3ncc4c(N5CCC[C@@](C)(O)C5)nc(OC[C@]56CCCN5[C@H](COC(=O)NC5CCCN(c7ccc8c(c7)n(C)c(=O)n8C7CCC(=O)NC7=O)C5)CC6)nc4c3F)c12 (stereo partly drawn) [Compound 309, ((3S,7aR)-7a-(((7-(8-ethyl-7-fluoro-3-hydroxynaphthalen-1-yl)-8-fluoro-4-((R)-3-hydroxy-3-methylpiperidin-1-yl)pyrido[4,3-d]pyrimidin-2-yl)oxy)methyl)hexahydro-1H-pyrrolizin-3-yl)methyl (1-(1-(2,6-dioxopiperidin-3-yl)-3-methyl-2-oxo-2,3-dihydro-1H-benzo[d]imidazol-5-yl)piperidin-3-yl)carbamate]
